Measurements from patent publication US20230287066A1, “MATERIALS AND METHODS FOR MAKING SEXUAL STAGE […]” (The Penn State Research Foundation, priority 2020, published 2023).

Experiments:
[1] = tested on: P. falciparum expressing a regulatable AP2-G polypeptide and having a reduced level of histone modification at the 3′ pairing element of the pfap2-g locus; assay: Gametocytogenesis (percentage sexual conversion) of engineered parasites treated with Shld1; assay type: cell-based, Plasmodium falciparum; settings: in the presence of a Shld1 molecule; 3′ pairing element mutant AP2-G-HA-FKBP parasites
Description: The number of gametocytes was determined by splitting the culture in two and treating half with Shld1 and half with the same volume of the vehicle (Day 1). The parental cell line (AP2-G-HA-FKBP) and the pairing element mutant were tested in parallel. After 48 hours (on Day 3), the number of parasites present was counted by microscopy and N-acetylglucosamine was added to all cultures to specifically kill asexual parasites. On Day 9, when gametocytes developed enough that they were readily distinguished from asexual stage parasites by morphology, the number of gametocytes were counted by microscopy. Percentage sexual conversion was calculated by dividing this by the proportion of parasite-infected red blood cells on Day 3.

[2] = tested on: AP2-G-HA-FKBP polypeptide; assay: Conditional knockdown of PfAP2-G fused to FKBP destabilization domain; assay type: cell-based, Plasmodium falciparum; settings: in the presence of Shld1; AP2-G-HA-FKBP parasites (FIG. 1)
From the text: A regulatable knockdown of PfAP2-G was generated by engineering a transgenic line with AP2-G fused to an FKBP destabilization domain (DD) as described elsewhere (see, e.g., Kafsack et al., Nature, 507(7491):248-52 (2014)). Briefly, a construct encoding an AP2-G polypeptide fused to an HA-tag and an FKBP DD (e.g., an AP2-G-HA-FKBP polypeptide) was stably integrated into the genome of Plasmodium falciparum lines.
In the absence of the ligand Shield-1 (Shld1), the FKBP destabilization domain was unstable and targets fusion proteins for proteolytic degradation.

CC[C@H](C(=O)N1CCCC[C@H]1C(=O)O[C@H](CCc1ccc(OC)c(OC)c1)c1cccc(OCCN2CCOCC2)c1)c1cc(OC)c(OC)c(OC)c1 [Shld1]
P. falciparum that commit to gametocytogenesis and form sexual stage parasites [1]: over 60% | stabilization of FKBP destabilization domain / gametocyte production [2]: gametocytes were produced
